Assay results reported in patent US20230165252A1, “ACTIVE COMPOUND COMBINATIONS” (Bayer Aktiengesellschaft, priority 2020, published 2023).
Read-outs that look alike come from different tables or passages of the source.

Assays:
Assay type in all cases: cell-based
Botrytis cinerea = experiment: in vitro-Test with Botrytis cinerea (microtiter growth inhibition); details: for inhibition of growth at 0.04 ppm: single active at 0.04 ppm; for inhibition of growth at 0.2 ppm: single active at 0.2 ppm; for Efficacy: applied alone
In short: (§1)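 Cpd/combination in MeOH + emulsifier into wells, solvent evaporated; liquid potato dextrose medium + spore/mycelium suspension added. OD 620 nm at t0; incubate 20° C./85% RH; OD 620 nm again at 3-5 d. % efficacy vs untreated control; combinations compared with expected efficacy (E) calculated by formula.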

Parastagonospora nodorum = experiment: in vitro-Test with Parastagonospora nodorum (microtiter growth inhibition)
Procedure: (§2) The degree of efficacy expressed in % is denoted: 0% means an efficacy, which corresponds to that of the control, while an efficacy of 100% means that no disease is observed.
(§3) If the actual fungicidal activity exceeds the calculated value, then the activity of the combination is super-additive, i.e. a synergistic effect exists. In this case, the efficacy, which was actually observed, must be greater than the value for the expected efficacy (E), that was calculated from the abovementioned formula.
(§4) Example: In Vitro-Test with Fungal Microorganisms
(§5) Wells of 96-well microtiter plates are filled with 10 μl of a preparation of test compound or compound combination in methanol+emulsifier alkylaryl-polyglycol-ether. Thereafter, the solvent is evaporated in a hood. At the next step, 100 μl of liquid potato dextrose medium is given into each well, that has been amended with an appropriate concentration of spores or mycelium suspension of the test fungus.
(§6) With the aid of a photometer, the extinction in all wells is measured at the wavelength of 620 nm.
(§7) The microtiter plates are incubated at 20° C. and 85% relative humidity. The inhibition of growth is determined again photometrically 3-5 days after the application. Efficacy is calculated in relation to the untreated control, 0% efficacy means fungal growth as high as in untreated control while 100% efficacy means no fungal growth is measured.

[1] = test system: Colletotrichum lindemuthianum; experiment: in vitro-Test with Colletotrichum lindemuthianum (microtiter growth inhibition)
Procedure: as §2, §3, §4, §5, §6, §7

Diaporthe citri = experiment: in vitro-Test with Diaporthe citri (microtiter growth inhibition); details: Diaporthe citri, read-out: Efficacy
In short: as §1

Alternaria alternate = experiment: in vitro-Test with Alternaria alternate (microtiter growth inhibition)
In short: as §1

[2] = test system: Ustilago segetum var. avenae; experiment: in vitro-Test with Ustilago segetum var. avenae (microtiter growth inhibition); details: read-out: Efficacy %
In short: as §1

Fusarium culmorum = experiment: in vitro-Test with Fusarium culmorum (microtiter growth inhibition); details: Fusarium culmorum, read-out: Efficacy
Procedure: as §2, §3, §4, §5, §6, §7

Cordana musae = experiment: in vitro-Test with Cordana musae (microtiter growth inhibition); details: Neocordana musae
In short: as §1

Cercospora beticola = experiment: in vitro-Test with Cercospora beticola (microtiter growth inhibition); details: Cercospora beticola
In short: as §1

[3] = Botrytis cinerea, read-out: Efficacy %
[4] = Parastagonospora nodorum, compound alone, 0.04 ppm, read-out: Efficacy %
[5] = Parastagonospora nodorum, compound alone, 0.2 ppm, read-out: Efficacy %
[6] = Parastagonospora nodorum, compound alone, 1.0 ppm, read-out: Efficacy %
[7] = Colletotrichum lindemuthianum, applied alone at 0.2 ppm, read-out: Efficacy %
[8] = Parastagonospora nodorum, read-out: Efficacy %
[9] = Colletotrichum lindemuthianum, read-out: Efficacy %

OC(Cc1ccccc1Cl)(Cn1nc[nH]c1=S)C1(Cl)CC1 (stereo not drawn) [(1.018) prothioconazole]
inhibition of growth at 0.04 ppm (Botrytis cinerea; [3]): 63%
inhibition of growth at 0.2 ppm (Botrytis cinerea; [3]): 100%
inhibition of growth at 0.008 ppm (Parastagonospora nodorum; Parastagonospora nodorum, compound alone, 0.008 ppm, read-out: Efficacy %): 28%
inhibition of growth at 0.04 ppm (Parastagonospora nodorum; [4]): 91%
inhibition of growth at 0.2 ppm (Parastagonospora nodorum; [5]): 99%
inhibition of growth at 1 ppm (Parastagonospora nodorum; [6]): 100%
Efficacy % (Parastagonospora nodorum; compound alone, 0.2 ppm): 99%
inhibition of growth at 0.2 ppm [1, 7]: 73%

CC(C)(C)C(O)(CCc1ccc(Cl)cc1)Cn1cncn1 (stereo not drawn) [(1.021) tebuconazole]
inhibition of growth at 0.008 ppm (Botrytis cinerea; Botrytis cinerea, single active at 0.008 ppm, read-out: Efficacy %): 2%
inhibition of growth at 0.04 ppm (Botrytis cinerea; [3]): 5%
inhibition of growth at 0.2 ppm (Botrytis cinerea; [3]): 39%
inhibition of growth at 0.04 ppm (Parastagonospora nodorum; [4]): 10%
inhibition of growth at 0.2 ppm (Parastagonospora nodorum; [5]): 79%
inhibition of growth at 1 ppm (Parastagonospora nodorum; [6]): 98%
inhibition of growth at 0.008 ppm ([1]; Colletotrichum lindemuthianum, applied alone at 0.008 ppm, read-out: Efficacy %): 7%
inhibition of growth at 0.04 ppm ([1]; Colletotrichum lindemuthianum, applied alone at 0.04 ppm, read-out: Efficacy %): 20%
inhibition of growth at 0.2 ppm [1, 7]: 2%
inhibition of growth at 1 ppm ([1]; Colletotrichum lindemuthianum, applied alone at 1.0 ppm, read-out: Efficacy %): 28%

N#Cc1ccccc1NC(=O)c1snc(Cl)c1Cl [(6.002) isotianil]
Efficacy % (Botrytis cinerea; single active at 4 ppm): 0%
Efficacy % (Botrytis cinerea; single active at 20 ppm): 0%
Efficacy % (Botrytis cinerea; single active at 100 ppm): 0%
Efficacy % ([1]; applied alone at 0.8 ppm): 7%
Efficacy % ([1]; applied alone at 4 ppm): 19%
Efficacy % ([1]; applied alone at 20 ppm): 0%
Efficacy % ([1]; applied alone at 100 ppm): 17%

N#Cc1c[nH]cc1-c1cccc2c1OC(F)(F)O2 [(13.001) fludioxonil]
inhibition of growth at 1 ppm (Parastagonospora nodorum; [8]): 34%
inhibition of growth at 5 ppm (Parastagonospora nodorum; [8]): 75%
Efficacy % (Parastagonospora nodorum; compound alone, 0.04 ppm): 0%
Efficacy % (Parastagonospora nodorum; compound alone, 0.2 ppm): 0%
inhibition of growth at 0.04 ppm [1, 9]: 8%
inhibition of growth at 0.2 ppm [1, 9]: 68%
inhibition of growth at 1 ppm [1, 9]: 81%
inhibition of growth at 5 ppm [1, 9]: 44%
Efficacy % ([1]; applied alone at 0.2 ppm): 60%

CCO[PH](=O)[O-].CCO[PH](=O)[O-].CCO[PH](=O)[O-].[Al+3] [(15.012) fosetylaluminium]
Efficacy % ([1]; applied alone at 4 ppm): 0%
Efficacy % ([1]; applied alone at 20 ppm): 22%
Efficacy % ([1]; applied alone at 100 ppm): 70%

N#Cc1c[nH]cc1-c1cccc2c1OC(F)(F)O2 [fludioxonil]
Efficacy (Botrytis cinerea; 0.04 ppm): 12%
Efficacy (Botrytis cinerea; 0.2 ppm): 99%
Efficacy (Botrytis cinerea; 1.0 ppm): 100%
Efficacy (Botrytis cinerea; 5.0 ppm): 100%
inhibition of growth at 0.04 ppm (Diaporthe citri): 12%
inhibition of growth at 0.2 ppm (Diaporthe citri): 0%
inhibition of growth at 1 ppm (Diaporthe citri): 45%
inhibition of growth at 5 ppm (Diaporthe citri): 10%
inhibition of growth at 0.04 ppm (Alternaria alternate; Alternaria, read-out: Efficacy %, 0.04 ppm, alone): 0%
inhibition of growth at 0.2 ppm (Alternaria alternate; Alternaria, read-out: Efficacy %, 0.2 ppm, alone): 0%
inhibition of growth at 1 ppm (Alternaria alternate; Alternaria, read-out: Efficacy %, 1.0 ppm, alone): 87%
inhibition of growth at 5 ppm (Alternaria alternate; Alternaria, read-out: Efficacy %, 5.0 ppm, alone): 100%
inhibition of growth at 0.04 ppm (Alternaria alternate; Alternaria, read-out: Efficacy, applied alone, 0.04 ppm): 0%
inhibition of growth at 0.2 ppm (Alternaria alternate; Alternaria, read-out: Efficacy, applied alone, 0.2 ppm): 0%
inhibition of growth at 1 ppm (Alternaria alternate; Alternaria, read-out: Efficacy, applied alone, 1.0 ppm): 96%
inhibition of growth at 5 ppm (Alternaria alternate; Alternaria, read-out: Efficacy, applied alone, 5.0 ppm): 100%
inhibition of growth at 0.04 ppm [2]: 10%
inhibition of growth at 0.2 ppm [2]: 60%
inhibition of growth at 1 ppm [2]: 100%
inhibition of growth at 5 ppm [2]: 100%
inhibition of growth at 0.04 ppm (Fusarium culmorum): 0%
inhibition of growth at 0.08 ppm (Fusarium culmorum; 0.08 ppm): 1%
inhibition of growth at 0.2 ppm (Fusarium culmorum; 0.2 ppm): 0%
inhibition of growth at 0.4 ppm (Fusarium culmorum; 0.4 ppm): 1%
inhibition of growth at 1 ppm (Fusarium culmorum): 91%
inhibition of growth at 2 ppm (Fusarium culmorum; 2 ppm): 2%
inhibition of growth at 5 ppm (Fusarium culmorum; 5.0 ppm): 100%
inhibition of growth at 10 ppm (Fusarium culmorum; 10 ppm): 11%
inhibition of growth at 1 ppm (Cordana musae; read-out: Efficacy, single substance, 1.0 ppm): 20%
inhibition of growth at 5 ppm (Cordana musae; read-out: Efficacy, single substance, 5.0 ppm): 44%
inhibition of growth at 5 ppm (Cercospora beticola; read-out: Efficacy %, alone, 5.0 ppm): 95%

CON=C(C(=O)OC)c1ccccc1CON=C(C)c1cccc(C(F)(F)F)c1 [trifloxystrobin]
Efficacy (Parastagonospora nodorum; 0.008 ppm): 38%
Efficacy (Parastagonospora nodorum; 0.04 ppm): 63%
Efficacy (Parastagonospora nodorum; 0.2 ppm): 78%
Efficacy (Parastagonospora nodorum; 1.0 ppm): 79%
inhibition of growth at 0.008 ppm (Diaporthe citri; applied alone, 0.008 ppm): 82%
inhibition of growth at 0.04 ppm (Diaporthe citri; applied alone, 0.04 ppm): 94%
inhibition of growth at 0.2 ppm (Diaporthe citri; applied alone, 0.2 ppm): 97%
inhibition of growth at 1 ppm (Diaporthe citri; applied alone, 1.0 ppm): 98%
inhibition of growth at 0.008 ppm (Alternaria alternate; Alternaria, 0.008 ppm, alone, read-out: Efficacy %): 56%
inhibition of growth at 0.04 ppm (Alternaria alternate; Alternaria, 0.04 ppm, alone, read-out: Efficacy %): 84%
inhibition of growth at 0.2 ppm (Alternaria alternate; Alternaria, 0.2 ppm, alone, read-out: Efficacy %): 90%
inhibition of growth at 1 ppm (Alternaria alternate; Alternaria, 1.0 ppm, alone, read-out: Efficacy %): 98%
inhibition of growth at 0.04 ppm (Alternaria alternate; Alternaria, applied alone, 0.04 ppm, read-out: Efficacy): 82%
inhibition of growth at 0.2 ppm (Alternaria alternate; Alternaria, applied alone, 0.2 ppm, read-out: Efficacy): 87%
Efficacy (Alternaria alternate; applied alone, 0.008 ppm): 51%
inhibition of growth at 0.008 ppm ([2]; single compound, 0.008 ppm): 16%
inhibition of growth at 0.04 ppm ([2]; single compound, 0.04 ppm): 40%
inhibition of growth at 0.2 ppm ([2]; single compound, 0.2 ppm): 53%
inhibition of growth at 0.008 ppm (Fusarium culmorum; 0.008 ppm): 0%
inhibition of growth at 0.04 ppm (Fusarium culmorum): 0%
inhibition of growth at 1 ppm (Fusarium culmorum): 11%
inhibition of growth at 0.008 ppm (Cordana musae; single substance, 0.008 ppm, read-out: Efficacy): 29%
inhibition of growth at 0.2 ppm (Cordana musae; single substance, 0.2 ppm, read-out: Efficacy): 66%
inhibition of growth at 0.008 ppm (Cercospora beticola; alone, 0.008 ppm, read-out: Efficacy %): 98%
inhibition of growth at 0.2 ppm (Cercospora beticola; alone, 0.2 ppm, read-out: Efficacy %): 95%
